Measurements reported in publication PMC6727436, “Gummosin, a sesquiterpene coumarin from Ferula assa-foetida is preferentially cytotoxic to human breast and prostate cancer cell lines” (Avicenna Journal of Phytomedicine, 2019).
Values after ≈ are worked out from the molar mass of the structure shown.

Columns and labels:
[1] = tested on: MCF-7 human breast adenocarcinoma cell line; assay: cells; type: cell-based; settings: for IC50: Homo sapiens, MCF7, 48 h, read-out: IC50 (µg/mL)±SD/Cell line MCF-7; for IC50 / IC50 (µg/mL)±SD/Cell line MCF-7: MCF-7, 48 hr treatment, alamarBlue; for cytotoxic activity at highest dose: MCF-7, highest dose 50 µg/mL
Protocol: (§1) Human breast adenocarcinoma cell line (MCF-7), human prostate cancer cell line (PC3) and human normal fibroblast cell line (NIH) were obtained from Biotechnology Research Center (Mashhad, Iran) and subsequently grown in RPMI-1640 medium with 10% fetal bovine serum (Gibco, Invitrogen, Paisley, UK), penicillin (100 units/ml) and streptomycin ([…]) as antibiotics. The cell culture was done in a humidified incubator under the atmosphere of 5% CO2 at 37 °C.
(§2) To measure the cytotoxic activity of pure compounds, a non-fluorescent substrate called resazurin (alamarBlue®; BioSource Invitrogen, Paisley, UK) was used in this study. In this study, we used a method that was previously reported by Haaften et al., with some small modifications (van Haaften et al., 2011). Briefly, when the cells were in the exponential phase, 1×10^4 of the three cell lines were seeded in 96-well plates. The cells were incubated for 24 hr in order to adhere to the plastic surface of the bottom of the wells. After 24 hr, the cells were treated with 6.25, 12.5, 25 and 50 µg/mL of each compound from the stock solution of 5 mg/mL in dimethyl sulfoxide (DMSO) via serial solution prepared using RPMI-1640. The amount of DMSO in final culture media was lower than […]. Also, to rule out the effects of DMSO on cells, equal amount of DMSO was added to the untreated groups. After 48 hr, viability of the cells was measured by adding alamarBlue® reagent (10% of tissue culture volume from stock solution of 0.14 mg/mL). The absorbance of the wells was read at 600 nm using a microplate reader. Doxorubicin at concentrations of 0.1, 1 and 5 µg/mL was used as the positive control and the viability was calculated using following formula:
(§3) T=Absorbance of wells with pure compounds at 600 nm after 48 hr of incubation.
(§4) UT=Absorbance of wells with cell but without any compound at 600 nm after 48 hr of incubation.
(§5) B=Absorbance of blank (without cell and compounds) at 600 nm after 48 hr of incubation.
(§6) In this study, all the experiments were done at least in triplicate.

[2] = tested on: PC3 human prostate cancer cell line; assay: cells; type: cell-based; settings: for IC50: Homo sapiens, 48 h, read-out: IC50 (µg/mL)±SD/Cell line PC3; for IC50 / IC50 (µg/mL)±SD/Cell line PC3: PC3, 48 hr treatment, alamarBlue; for cytotoxic activity at highest dose: PC3, highest dose 50 µg/mL
Protocol: as §1, §2, §3, §4, §5, §6

[3] = tested on: NIH human normal fibroblast cell line; assay: alamarBlue (resazurin) cytotoxicity assay, NIH normal cells; type: cell-based; settings: for IC50: Homo sapiens, Fibroblast, NIH normal cells, 48 hr treatment, alamarBlue, read-out: IC50 (µg/mL)±SD/Cell line NIH
Protocol: as §1, §2, §3, §4, §5, §6

[4] = tested on: ovarian cancer cell line; parameters: method as in Valiahdi et al., 2013; settings: ref Valiahdi et al., 2013; read-out: IC50 against ovarian cancer cell line; cited from earlier work
[5] = parameters: method as in Iranshahi, 2018; settings: cell line not stated; ref Iranshahi, 2018; cited from earlier work
[6] = tested on: cancer cell lines; parameters: method as in Kasaian, et al., 2015; settings: ref Kasaian, et al., 2015; cited from earlier work

Row | Compound | IC50 [1] | IC50 [2] | IC50 [3] | also measured
1 | COc1cccc2c1C(=O)c1c(O)c3c(c(O)c1C2=O)C[C@@](O)(C(=O)CO)C[C@@H]3O[C@H]1C[C@H](N)[C@H](O)[C@H](C)O1 [Doxorubicin, reference compound] | 0.28 µg/mL (≈ 0.515 µM) | 0.62 µg/mL (≈ 1.14 µM) | – | –
2 | C=C1CC[C@@H]2C(C)(C)[C@H](O)CC[C@@]2(C)[C@H]1COc1ccc2ccc(=O)oc2c1 [Farnesiferol A] | > 50 µg/mL | > 50 µg/mL | > 100 µg/mL | cytotoxic activity at highest dose [1]: did not show cytotoxic activity; cytotoxic activity at highest dose [2]: did not show cytotoxic activity
3 | CC1=CCC2C(C)(C)C(=O)CCC2(C)C1COc1ccc2ccc(=O)oc2c1 (centres unmarked) [conferone] | – | – | – | IC50 [4]: 7.79 µM
4 | CC(C)=CCC/C(C)=C/CC/C(C)=C/Cc1c(O)c2ccccc2oc1=O [ferulenol] | – | – | – | IC50 (cytotoxic activity) [5]: 1 µg/mL (≈ 2.73 µM)
5 | CC1=CC[C@@H]2C(C)(C)[C@H](O)CC[C@@]2(C)[C@@H]1COc1ccc2ccc(=O)oc2c1 [feselol, Feselol] | – | – | – | activity against cancer cell lines [6]: inactive

Further lines, with some results ahead:

Row | IC50 [1] | IC50 [2] | Compound | IC50 [3] | also measured
6 | < 50 µg/mL | < 50 µg/mL | C=C1CC[C@@H](O)C(C)(C)C1CC/C(C)=C/COc1ccc2ccc(=O)oc2c1 (some centres unmarked) [Farnesiferol B] | > 100 µg/mL | –
7 | < 50 µg/mL | < 50 µg/mL | C/C(=C\COc1ccc2ccc(=O)oc2c1)CC[C@@H]1C(C)(C)[C@H]2CC[C@]1(C)O2 [Farnesiferol C] | > 100 µg/mL | IC50 (µg/mL)±SD/Cell line MCF-7 [1]: 41.7 ± 8.2 µg/mL (≈ 109 µM); IC50 (µg/mL)±SD/Cell line PC3 [2]: 43.1 ± 9.5 µg/mL (≈ 113 µM)
8 | < 50 µg/mL | < 50 µg/mL | C=C1CCC2C(C)(C)C(O)CCC2(C)C1COc1ccc2ccc(=O)oc2c1 (centres unmarked) [Gummosin] | > 100 µg/mL | IC50 (µg/mL)±SD/Cell line MCF-7 [1]: 32.1 ± 2.3 µg/mL (≈ 83.9 µM); IC50 (µg/mL)±SD/Cell line PC3 [2]: 30.0 ± 4.7 µg/mL (≈ 78.4 µM); toxicity in normal cell line ([3]; NIH normal cell line, at 50 µg/mL): did not cause any toxicity
9 | > 50 µg/mL | > 50 µg/mL | CC1(C)CC[C@H]2C(C)(C)[C@H](O)CC[C@]2(C)[C@H]1COc1ccc2ccc(=O)oc2c1 [Samarcandin] | > 100 µg/mL | cytotoxic activity at highest dose [1]: unable to induce toxicity; cytotoxic activity at highest dose [2]: unable to induce toxicity
10 | > 50 µg/mL | > 50 µg/mL | CC(C)=CCC/C(C)=C/CC/C(C)=C/COc1ccc2ccc(=O)oc2c1 [Umbelliprenin] | > 100 µg/mL | –
